Measured values reported in ChEMBL document CHEMBL5608113, “Targeting of CAF-induced therapy resistance in CRC organoid-stroma co-cultures” (2024).

Assays:
Format in all cases: functional, Homo sapiens
Settings in all cases: Homo sapiens, read-out: Cell Viability; for viability at 10 µM: Concentration 10 uM; for viability at 1 µM: Concentration 1 uM
Colon cancer organoid [1] = assay: Targeting of F14 CAF-induced therapy resistance in O23 CRC organoid-stroma co-culture. Cell viability is reported with SN-38.
Colon cancer organoid [2] = assay: Targeting of F14 CAF-induced therapy resistance in O23 CRC organoid-stroma co-culture. Cell viability is reported without Gefitinib.
Colon cancer organoid [3] = assay: Targeting of F14 CAF-induced therapy resistance in O14 CRC organoid-stroma co-culture. Cell viability is reported without Gefitinib.
Colon cancer organoid [4] = assay: Targeting of F14 CAF-induced therapy resistance in O14 CRC organoid-stroma co-culture. Cell viability is reported with Gefitinib.
Colon cancer organoid [5] = assay: Targeting of F14 CAF-induced therapy resistance in O23 CRC organoid-stroma co-culture. Cell viability is reported with Gefitinib.

SMILES | viability at 10 µM (Colon cancer organoid [1]) [%] | viability at 10 µM (Colon cancer organoid [2]) [%] | viability at 10 µM (Colon cancer organoid [3]) [%] | viability at 10 µM (Colon cancer organoid [4]) [%] | viability at 10 µM (Colon cancer organoid [5]) [%] | viability at 1 µM (Colon cancer organoid [1]) [%] | viability at 1 µM (Colon cancer organoid [2]) [%] | viability at 1 µM (Colon cancer organoid [3]) [%] | viability at 1 µM (Colon cancer organoid [4]) [%] | viability at 1 µM (Colon cancer organoid [5]) [%]
Cc1cc(NC(=O)c2cccc(S(F)(F)(F)(F)F)c2)cc(-n2ccn3nc(-c4cccnc4)cc23)c1 [BAY-309] | 61.2 | 159 | 87.3 | 49.9 | 65 |  |  |  |  | 
O=C(N1CCS(=O)(=O)CC1)N1C[C@H](c2ccc(OC(F)(F)F)cc2)C[C@H](c2nc(C3CC3)no2)C1 [BAY-386] | 74.8 | 120 | 103 | 53.2 | 55.9 |  |  |  |  | 
O[C@]1(C(F)(F)F)CCCC[C@H]1Nc1ccc(F)cc1 [BAY-390] |  |  |  |  |  | 51 | 153 | 92.1 | 34 | 64.2
Cc1c(N2CCNCC2)nc2ccc(Br)cc2c1C(=O)NC[C@H](CCC(=O)O)c1ccccc1Cl [BAY-403] | 87.2 | 60.5 | 85.5 | 29.6 | 48 |  |  |  |  | 
CN(C)c1ncnc(-c2ccc3nc(Nc4cc(CN5CCN(C(=O)CC(F)(F)F)CC5)ccn4)[nH]c3c2)c1Cl [BAY-440] | 92.8 | 160 | 114 | 68.9 | 78.1 |  |  |  |  | 
Cc1noc([C@H]2C[C@@H](c3ccc(C(F)(F)F)cc3)CN(C(=O)N3CCS(=O)(=O)C3)C2)n1 [BAY-448] | 95.1 | 124 | 99.7 | 49 | 58 |  |  |  |  | 
CC1=C(C#N)C(c2ccc3[nH]nc(C)c3c2)C(C#N)=C(C)N1 [BAY-474] | 81.4 | 115 | 90.1 | 7.78 | 22.9 |  |  |  |  | 
Cc1c[nH]c2nccc(Oc3c(F)cc(Nc4cc(Cl)nc(N)n4)cc3F)c12 [BAY-549] |  |  |  |  |  | 74.7 | 124 | 96.4 | 30.6 | 62.9
Cc1c(NC(=O)c2cc(C(N)=O)nc3cc(F)ccc23)c(C(F)(F)F)nn1Cc1ccc(C(C)(C)C)cc1 [BAY-588] |  |  |  |  |  | 104 | 111 | 45.5 | 31.3 | 43.1
CC(=O)C1=C(C)N(c2cccc(C(F)(F)F)c2)C(=O)N[C@H]1c1ccc(C#N)nc1 [BAY-677] | 75 | 93.5 | 107 | 57.5 | 51.7 |  |  |  |  | 
CC(=O)C1=C(C)N(c2cccc(C(F)(F)F)c2)C(=O)N[C@@H]1c1ccc(C#N)nc1 [BAY-678] | 75.6 | 108 | 103 | 41.2 | 61.8 |  |  |  |  | 
Cc1nc(C2CCN(C(=O)c3ccc(OC(F)(F)F)cc3N)CC2)c2ncc(N3CCN(C)CC3)cc2n1 [BAY-693] | 53.6 | 119 | 76.4 | 32.1 | 46.5 |  |  |  |  | 
O=C(O)[C@@H]1[C@@H](Cn2nnc3ccccc3c2=O)CC[C@H]1C(=O)c1ccc(OCCC2CCOCC2)cc1 [BAY-694] | 78.7 | 146 | 102 | 56 | 53 |  |  |  |  | 
O=C(NCc1ncc(C(F)(F)F)cc1Cl)c1ccc2c(c1)C1(CCS(=O)(=O)CC1)[C@H](C1CC1)N2S(=O)(=O)c1ccc(F)cc1 [BAY-784] |  |  |  |  |  | 127 | 157 | 129 | 55.8 | 74.1
O=C(NCc1ncc(C(F)(F)F)cc1Cl)c1ccc2c(c1)C1(CCS(=O)(=O)CC1)[C@@H](C1CC1)N2S(=O)(=O)c1ccc(F)cc1 [BAY-786] | 106 | 138 | 115 | 53 | 61.5 |  |  |  |  | 
Cc1cc(C)c(-n2ccn3nc(-c4cccnc4)cc23)cc1NC(=O)c1cc(C#N)cc(S(F)(F)(F)(F)F)c1 [BAY-826] |  |  |  |  |  | 64.2 | 102 | 145 | 58.7 | 58.2
Cc1c(NC(=O)c2cc(C(N)=O)nc3cc(F)ccc23)c(C(F)(F)F)nn1Cc1ccc(C#N)cc1 [BAY-876] | 39.6 | 43.8 | 16.3 | 5.75 | 15 |  |  |  |  | 
CN1CCN(c2cnc3c(C4CCN(C(=O)c5ccc(OC(F)(F)F)cc5N)CC4)ncnc3c2)CC1 [BAY-885] | 78 | 115 | 114 | 21.7 | 59.7 |  |  |  |  | 
O=C(Nc1ccc(Oc2ccc(F)cc2)cc1)N1CCc2ncccc2[C@H]1c1ccc(F)cc1 [BAY-897] |  |  |  |  |  | 61.9 | 111 | 80 | 32.3 | 47.5

SMILES | viability at 10 µM (Colon cancer organoid [1]) [%] | viability at 10 µM (Colon cancer organoid [2]) [%] | viability at 10 µM (Colon cancer organoid [3]) [%] | viability at 10 µM (Colon cancer organoid [4]) [%] | viability at 10 µM (Colon cancer organoid [5]) [%] | viability at 1 µM (Colon cancer organoid [1]) [%] | viability at 1 µM (Colon cancer organoid [2]) [%] | viability at 1 µM (Colon cancer organoid [3]) [%] | viability at 1 µM (Colon cancer organoid [4]) [%] | viability at 1 µM (Colon cancer organoid [5]) [%]
O=C(Nc1cnc(Oc2ccc(F)cc2)nc1)N1CCc2ncccc2[C@@H]1c1ccc(F)cc1 [BAY-899] | 59.1 | 223 | 98.8 | 39.4 | 63.6 |  |  |  |  | 
CC1=C(C#N)C(c2ccc3c(c2)c(NC(=O)c2ccccc2C)nn3C)C(C#N)=C(C)N1 [BAY-974] | 57.9 | 103 | 109 | 48.3 | 40.1 |  |  |  |  | 
C[C@H](c1ccnc(Nc2nc3ccc(-c4cc(N(C)C)ncn4)cc3[nH]2)c1)N1CCN(C(=O)CC(F)(F)F)CC1 [BAY-985] | 80.5 | 160 | 163 | 77.2 | 84.3 |  |  |  |  | 
NS(=O)(=O)c1cc(NC(=O)Cc2ccccc2)ccc1Oc1cccc(Cl)c1 [BAY-1797] | 60.6 | 114 | 124 | 51.7 | 48.6 |  |  |  |  | 
CCc1ccccc1C(=O)Nc1n[nH]c2c(C)c(F)c(C3C(C#N)=C(C)N(C)C(C)=C3C#N)cc12 [BAY-3827] | 14.5 | 47.4 | 101 | 24.2 | 30.6 |  |  |  |  | 
Cn1cc(Cl)c2c(Oc3c(F)cc(Nc4cc(Cl)nc(N)n4)cc3F)ccnc21 [BAY-4900] | 54.4 | 107 | 85 | 30.9 | 40.3 |  |  |  |  | 
Cc1c(N2CCCC2)nc2ccc(Br)cc2c1C(=O)NC[C@H](CCC(=O)O)c1ccccc1Cl [BAY-6672] | 58.4 | 81.2 | 138 | 37.9 | 42.2 |  |  |  |  | 
O=C(O)[C@H]1[C@H](Cn2nnc3ccccc3c2=O)CC[C@@H]1C(=O)c1ccc(OCCC2CCOCC2)cc1 [BAY-7598] |  |  |  |  |  | 99.1 | 130 | 122 | 48.5 | 41.8
COc1cc(N[C@@H]2CCCC[C@]2(O)C(F)(F)F)ccc1F [BAY-9897] |  |  |  |  |  | 78.5 | 81.6 | 86.4 | 40.2 | 66.7
NC(=O)c1ccc2nc(-c3ccc(C4(N)CCC4)cc3)c(-c3ccccc3)n2n1 [BAY-1125976] |  |  |  |  |  | 47.7 | 86 | 152 | 52.1 | 38
CC(=O)N1CCC(c2ccc(C(=O)NC3=NCCN3)cc2C(F)(F)F)CC1 [BI 0054] | 74.4 | 120 | 46.7 | 17.4 | 54.5 |  |  |  |  | 
CN(C)C(=O)Cn1cc(-c2nc(C3(c4ccc(-c5cnc(N)nc5)cc4)CC3)no2)cn1 [BI 0153] | 98.3 | 171 | 110 | 82.1 | 48.9 |  |  |  |  | 
COc1ccc2c(O[C@@H]3C[C@H]4C(=O)N[C@]5(C(=O)O)CC5/C=C\CCCCC[C@H](NC(=O)OC5CCCC5)C(=O)N4C3)cc(-c3csc(NC(=O)C(C)C)n3)nc2c1C (stereo not given in full) [BI 1230] | 77.1 | 141 | 152 | 50 | 63.1 |  |  |  |  | 
O=C(N[C@H]1CCCCC/C=C\C2C[C@@]2(C(=O)O)NC(=O)[C@@H]2C[C@@H](Oc3ccncc3)CN2C1=O)OC1CCCC1 (stereo not given in full) [BI 1675] | 89.7 | 136 | 102 | 62 | 51 |  |  |  |  | 
CCOCCn1cc(C(=O)Nc2ccc(-n3nc(-c4cccnc4)cc3C(F)(F)F)cn2)ccc1=O [BI 1935] | 64.4 | 98.5 | 82.6 | 40.1 | 70.8 |  |  |  |  | 
C[C@H](NC(=O)c1cnc2n1[C@](C)(Cc1ccc(C#N)cc1)C(=O)N2c1cc(Cl)c(F)c(Cl)c1)C(=O)NC1(c2ccccn2)CC1 [BI 1950] | 85.8 | 104 | 125 | 44.4 | 52.2 |  |  |  |  | 
O=C(Nc1ccc(-n2nc(-c3cccnc3)cc2C(F)(F)F)cn1)c1ccc(-c2ccccc2)c(F)c1 [BI 2049] |  |  |  |  |  | 97.9 | 103 | 132 | 24.6 | 32.7
CC(C)(C#Cc1ccc(NC(=O)COc2ccccc2C(=O)c2ccccc2)c(Cl)c1)C(=O)O [BI 2439] | 82.7 | 160 | 159 | 36.7 | 98.3 |  |  |  |  | 
